Reference: patent US8877748B2, “Heterocyclic fused anthraquinone derivatives, manufacturing method and pharmaceutical composition using thereof” (National Defense Medical Center, priority 2012, dated 2014)

How the values were obtained:
EKVX = assay: NCI one-dose screening, non-small cell lung cancer EKVX; assay type: cell-based, human; conditions: 10 μM
SK-MEL-5 = assay: NCI one-dose screening, melanoma SK-MEL-5; assay type: cell-based, human; conditions: 10 μM
COLO 205 = assay: NCI one-dose screening, colon cancer COLO 205; assay type: cell-based, human; conditions: 10 μM
786-O = assay: NCI one-dose screening, renal cancer 786-O; assay type: cell-based, human; conditions: 10 μM
ACHN = assay: NCI one-dose screening, renal cancer ACHN; assay type: cell-based, human; conditions: 10 μM
SF-539 = assay: NCI one-dose screening, CNS cancer SF-539; assay type: cell-based, human; conditions: 10 μM
SK-OV-3 = assay: NCI one-dose screening, ovarian cancer SK-OV-3; assay type: cell-based, human; conditions: 10 μM
UACC-257 = assay: NCI one-dose screening, melanoma UACC-257; assay type: cell-based, human; conditions: 10 μM
SK-MEL-2 = assay: NCI one-dose screening, melanoma SK-MEL-2; assay type: cell-based, human; conditions: 10 μM
HCT-116 = assay: NCI one-dose screening, colon cancer HCT-116; assay type: cell-based, human; conditions: 10 μM
HCC-2998 = assay: NCI one-dose screening, colon cancer HCC-2998; assay type: cell-based, human; conditions: 10 μM
RXF, 393 = assay: NCI one-dose screening, renal cancer RXF, 393; assay type: cell-based, human; conditions: 10 μM
HT29 = assay: NCI one-dose screening, colon cancer HT29; assay type: cell-based, human; conditions: 10 μM
MDA-MB-468 = assay: NCI one-dose screening, breast cancer MDA-MB-468; assay type: cell-based, human; conditions: 10 μM
[1] = test system: PC-3 prostate cancer cell line; assay: SRB assay cell viability, PC-3 prostate cancer cell line; assay type: cell-based, human; conditions: Homo sapiens, PC-3 prostate cancer cell line, Table II prints no unit, μM printed, read-out: SRB assay: 50% inhibition of cancer cell proliferation of sample concentration (IC50) of PC-3 prostate cancer cell line
NCl/ADR-RES = assay: NCI one-dose screening, breast cancer NCl/ADR-RES; assay type: cell-based, human; conditions: 10 μM; listed under Ovarian cancer
OVCAR-8 = assay: NCI one-dose screening, ovarian cancer OVCAR-8; assay type: cell-based, human; conditions: 10 μM
NCI-H23 = assay: NCI one-dose screening, non-small cell lung cancer NCI-H23; assay type: cell-based, human; conditions: 10 μM
OVCAR-5 = assay: NCI one-dose screening, ovarian cancer OVCAR-5; assay type: cell-based, human; conditions: 10 μM
M14 = assay: NCI one-dose screening, melanoma M14; assay type: cell-based, human; conditions: 10 μM
SNB-75 = assay: NCI one-dose screening, CNS cancer SNB-75; assay type: cell-based, human; conditions: 10 μM
HCT-15 = assay: NCI one-dose screening, colon cancer HCT-15; assay type: cell-based, human; conditions: 10 μM
T-47D = assay: NCI one-dose screening, breast cancer T-47D; assay type: cell-based, human; conditions: 10 μM
CAKI-1 = assay: NCI one-dose screening, renal cancer CAKI-1; assay type: cell-based, human; conditions: 10 μM
SNB-19 = assay: NCI one-dose screening, CNS cancer SNB-19; assay type: cell-based, human; conditions: 10 μM
MALME-3M = assay: NCI one-dose screening, melanoma MALME-3M; assay type: cell-based, human; conditions: 10 μM
UACC-62 = assay: NCI one-dose screening, melanoma UACC-62; assay type: cell-based, human; conditions: 10 μM
LOX IMVI = assay: NCI one-dose screening, melanoma LOX IMVI; assay type: cell-based, human; conditions: 10 μM
SK-MEL-28 = assay: NCI one-dose screening, melanoma SK-MEL-28; assay type: cell-based, human; conditions: 10 μM
BT-549 = assay: NCI one-dose screening, breast cancer BT-549; assay type: cell-based, human; conditions: 10 μM
UO-31 = assay: NCI one-dose screening, renal cancer UO-31; assay type: cell-based, human; conditions: 10 μM
TK-10 = assay: NCI one-dose screening, renal cancer TK-10; assay type: cell-based, human; conditions: 10 μM
IGROV1 = assay: NCI one-dose screening, ovarian cancer IGROV1; assay type: cell-based, human; conditions: 10 μM
HOP-62 = assay: NCI one-dose screening, non-small cell lung cancer HOP-62; assay type: cell-based, human; conditions: 10 μM
SN12C = assay: NCI one-dose screening, renal cancer SN12C; assay type: cell-based, human; conditions: 10 μM
human tumor cell lines = assay: NCI one-dose screening, Mean / Delta / Range of growth percent over all tested cell lines; assay type: cell-based; conditions: 10 μM
NCI-H522 = assay: NCI one-dose screening, non-small cell lung cancer NCI-H522; assay type: cell-based, human; conditions: 10 μM
MCF7 = assay: NCI one-dose screening, breast cancer MCF7; assay type: cell-based, human; conditions: 10 μM
U251 = assay: NCI one-dose screening, CNS cancer U251; assay type: cell-based, human; conditions: 10 μM
MDA-MB-231/ATCC = assay: NCI one-dose screening, breast cancer MDA-MB-231/ATCC; assay type: cell-based, human; conditions: 10 μM
NCI-H226 = assay: NCI one-dose screening, non-small cell lung cancer NCI-H226; assay type: cell-based, human; conditions: 10 μM
MDA, -MB-435 = assay: NCI one-dose screening, breast cancer MDA, -MB-435; assay type: cell-based, human; conditions: 10 μM; listed under Melanoma
A549/ATCC = assay: NCI one-dose screening, non-small cell lung cancer A549/ATCC; assay type: cell-based, human; conditions: 10 μM

In the case of `CCOc1cccc(Sc2cc3c(c4nsnc24)C(=O)c2ccccc2C3=O)c1` [C50, 4-(3-ethoxy-phenylthio)anthra[2,1-c] [1,2,5]thiadiazol-6,11-dione], the “Growth Percent EKVX” value (EKVX) was 102.26%, the “Growth Percent SK-MEL-5” value (SK-MEL-5) was 106.82% and the “Growth Percent COLO 205” value (COLO 205) was 106.49%. For the same molecule, the “Growth Percent 786-0” value (786-O) was 100.25%, the “Growth Percent ACHN” value (ACHN) was 103.33% and the “Growth Percent SF-539” value (SF-539) was 93.72%. The “Growth Percent SK-OV-3” value (SK-OV-3) was 99.36%, the “Growth Percent UACC-257” value (UACC-257) was 126.28% and the “Growth Percent SK-MEL-2” value (SK-MEL-2) was 102.98%. The “Growth Percent HCT-116” value (HCT-116) was 100.93%, the “Growth Percent HCC-2998” value (HCC-2998) was 105.49% and the “Growth Percent RXF 393” value (RXF, 393) was 118.35%. The “Growth Percent HT29” value (HT29) was 106.40%, the “Growth Percent MDA-MB-468” value (MDA-MB-468) was 108.00% and the IC50 [1] was greater than 15 µM. The “Growth Percent NCI/ADR-RES” value (NCl/ADR-RES) was 101.92%, the “Growth Percent OVCAR-8” value (OVCAR-8) was 112.41% and the “Growth Percent NCI-H23” value (NCI-H23) was 94.07%. The “Growth Percent OVCAR-5” value (OVCAR-5) was 116.60%, the “Growth Percent M14” value (M14) was 103.80% and the “Growth Percent SNB-75” value (SNB-75) was 77.25%. The “Growth Percent HCT-15” value (HCT-15) was 103.08%, the “Growth Percent T-47D” value (T-47D) was 86.51% and the “Growth Percent CAKI-1” value (CAKI-1) was 84.23%. For the same molecule, the “Growth Percent SNB-19” value (SNB-19) was 103.22%, the “Growth Percent MALME-3M” value (MALME-3M) was 108.70% and the “Growth Percent UACC-62” value (UACC-62) was 108.85%. For the same molecule, the “Growth Percent LOX IMVI” value (LOX IMVI) was 84.11%, the “Growth Percent SK-MEL-28” value (SK-MEL-28) was 112.20% and the “Growth Percent BT-549” value (BT-549) was 103.88%. For the same molecule, the “Growth Percent UO-31” value (UO-31) was 76.69%, the “Growth Percent TK-10” value (TK-10) was 125.26% and the “Growth Percent IGROV1” value (IGROV1) was 94.67%. The “Growth Percent HOP-62” value (HOP-62) was 91.94%, the “Growth Percent SN12C” value (SN12C) was 104.76% and the “Growth Percent Delta” value (human tumor cell lines; delta over all cell lines) was 25.00%. For the same molecule, the “Growth Percent Mean” value (human tumor cell lines; mean over all cell lines) was 101.69%, the “Growth Percent Range” value (human tumor cell lines; range over all cell lines) was 49.59% and the “Growth Percent NCI-H522” value (NCI-H522) was 98.19%. The “Growth Percent MCF7” value (MCF7) was 78.81%, the “Growth Percent U251” value (U251) was 109.69% and the “Growth Percent MDA-MB-231/ATCC” value (MDA-MB-231/ATCC) was 100.81%. For the same molecule, the “Growth Percent NCI-H226” value (NCI-H226) was 90.47%, the “Growth Percent MDA-MB-435” value (MDA, -MB-435) was 106.07% and the “Growth Percent A549/ATCC” value (A549/ATCC) was 111.48%.
